Source: patent US20240083853A1, “HSD17B13 INHIBITORS AND USES THEREOF” (FL2022-001, Inc., priority 2020, published 2024)

Target: T1, Recombinant human HSD17B13 enzyme (Homo sapiens, UniProt Q7Z5P4)
T1 sequence (Q7Z5P4 20-300): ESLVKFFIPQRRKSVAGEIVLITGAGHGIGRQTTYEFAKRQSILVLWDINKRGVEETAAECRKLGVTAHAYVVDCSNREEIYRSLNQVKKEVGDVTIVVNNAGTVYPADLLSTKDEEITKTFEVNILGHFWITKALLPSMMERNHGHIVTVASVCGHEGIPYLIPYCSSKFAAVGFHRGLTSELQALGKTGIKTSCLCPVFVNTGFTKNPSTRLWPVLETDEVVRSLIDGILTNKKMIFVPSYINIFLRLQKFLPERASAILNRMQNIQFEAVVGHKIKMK
Assay: HSD17b13 NAD(P)H-Glo biochemical assay
Settings: 50 uM estradiol, 1 mM NAD+, NAD(P)H-Glo luminescence; read-out: HSD17β13 IC50
Experimental: Example B-1: HSD17b13 NAD(P)H-Glo Biochemical Assay
Recombinant human HSD17B13 enzyme. Substrate: estradiol (Sigma β-Estradiol E8875), 100 mM in DMSO. Cofactor: NAD+ Grade I free acid (Sigma 10127965001), 20 mM in H2O. Assay buffer final concentration: 20 mM Tris pH7.4 with 0.002% Tween-20 and 0.02% BSA. Assay performed in 384 well solid bottom plate (Corning 3570). Enzymatic activity detected by NAD(P)H-Glo™ Detection System (Promega G9062).
Inhibitor compounds were serially diluted in DMSO and then further diluted in assay buffer to a 10× concentration consisting of 1% DMSO.
HSD17b13 enzyme was diluted in 1× assay buffer to the desired enzyme concentration based on the specific activity of the enzyme lot. 20 uL of diluted enzyme was added to each well along with 2.5 uL of 10× inhibitor solution. Assay plate was incubated at RT for 20 minutes, and then 2.5 uL of a 10× substrate/cofactor mix was added to each well for a final concentration of 50 uM estradiol and 1 mM NAD+. Assay plate was incubated at 37° C. for 3 hours. NAD(P)H-Glo™ Detection System reagents were prepared according to manufacturer's specifications, and 25 uL was added to each well. After incubating for 1 hour at RT, luminescence was measured.

First: NS(=O)(=O)c1cccc(-c2ccc(-n3ncc4cc(F)c(O)cc43)cc2)c1 [Compound 13.37, 4′-(5-Fluoro-6-hydroxy-1H-indazol-1-yl)-[1,1′-biphenyl]-3-sulfonamide]
Second: NS(=O)(=O)c1ccc(-c2ccc(-n3ncc4cc(F)c(O)cc43)cc2)cc1 [Compound 13.38, 4′-(5-Fluoro-6-hydroxy-1H-indazol-1-yl)-[1,1′-biphenyl]-4-sulfonamide]
The IC50 of the first is higher: 100 to 1000 nM for the first, < 100 nM for the second. The second is the more potent here.

`N#Cc1ccc(-c2ccc(-n3ncc4cc(F)c(O)c(F)c43)cc2)cc1` [Compound 13.39, 4′-(5,7-Difluoro-6-hydroxy-1H-indazol-1-yl)-[1,1′-biphenyl]-4-carbonitrile] and `N#Cc1ccc(-c2ccc(-n3ncc4cc(F)c(O)c(F)c43)cc2)cn1` [Compound 14, 5-(4-(5,7-Difluoro-6-hydroxy-1H-indazol-1-yl)phenyl)picolinonitrile] cannot be ordered by IC50: < 100 nM for the first, < 100 nM for the second.

Compared with `CS(=O)(=O)c1ccc(-c2ccc(-n3ncc4cc(F)c(O)c(F)c43)cc2)cc1` [Compound 13.40, 5,7-Difluoro-1-(4′-(methylsulfonyl)-[1,1′-biphenyl]-4-yl)-1H-indazol-6-ol], `Oc1c(F)cc2cnn(-c3ccc(-c4ccncc4)cc3)c2c1F` [Compound 14.4, 5,7-Difluoro-1-(4-(pyridin-4-yl)phenyl)-1H-indazol-6-ol] is lower in IC50: 100 to 1000 nM for the first, < 100 nM for the second. The second is the more potent here.

`Oc1c(F)cc2cnn(-c3ccc(-c4cn[nH]c4)cc3)c2c1F` [Compound 14.1, 1-(4-(1H-Pyrazol-4-yl)phenyl)-5,7-difluoro-1H-indazol-6-ol] and `Oc1c(F)cc2cnn(-c3ccc(-c4cc[nH]n4)cc3)c2c1F` [Compound 14.2, 1-(4-(1H-Pyrazol-3-yl)phenyl)-5,7-difluoro-1H-indazol-6-ol] fall in the same range of IC50: 100 to 1000 nM for the first, 100 to 1000 nM for the second.

`Oc1c(F)cc2cnn(-c3ccc(-c4cccnc4)cc3)c2c1F` [Compound 14.3, 5,7-Difluoro-1-(4-(pyridin-3-yl)phenyl)-1H-indazol-6-ol] and `Oc1c(F)cc2cnn(-c3ccc(-c4ccc(Cl)cc4)nc3)c2c1F` [Compound 18.2, 1-(6-(4-Chlorophenyl)pyridin-3-yl)-5,7-difluoro-1H-indazol-6-ol] cannot be ordered by IC50: < 100 nM for the first, < 100 nM for the second.

`Oc1cc2c(cnn2-c2ccc(-c3ccc(O)c(Cl)c3)cc2)cc1F` [Compound 15, 1-(3′-Chloro-4′-hydroxy-[1,1′-biphenyl]-4-yl)-5-fluoro-1H-indazol-6-ol] and `Oc1ccc2cnn(-c3ccc(-c4ccc(O)c(Cl)c4)cc3)c2c1` [Compound 18.1, 1-(3′-Chloro-4′-hydroxy-[1,1′-biphenyl]-4-yl)-1H-indazol-6-ol] fall in the same range of IC50: 100 to 1000 nM for the first, 100 to 1000 nM for the second.

`Cc1cc(-c2ccc(O)cc2)ccc1-n1ncc2cc(F)c(O)cc21` [Compound 15.1, 5-Fluoro-1-(4′-hydroxy-3-methyl-[1,1′-biphenyl]-4-yl)-1H-indazol-6-ol] and `Oc1ccc(-c2ccc(-n3ncc4cc(F)c(O)cc43)nc2)cc1` [Compound 15.3, 5-Fluoro-1-(5-(4-hydroxyphenyl)pyridin-2-yl)-1H-indazol-6-ol] fall in the same range of IC50: 100 to 1000 nM for the first, 100 to 1000 nM for the second.

`Oc1ccc(-c2ccc(-n3ncc4cc(F)c(O)cc43)cn2)cc1` [Compound 15.2, 5-Fluoro-1-(6-(4-hydroxyphenyl)pyridin-3-yl)-1H-indazol-6-ol] and `Oc1cccc(-c2ccc(-n3ncc4cc(F)c(O)c(Cl)c43)cc2)c1` [Compound 17, 7-Chloro-5-fluoro-1-(3′-hydroxy-[1,1′-biphenyl]-4-yl)-1H-indazol-6-ol] fall in the same range of IC50: 100 to 1000 nM for the first, 100 to 1000 nM for the second.

`Oc1cccc(-c2ccc(-n3ncc4c(F)c(F)c(O)c(F)c43)cc2)c1` [Compound 15.4, 4,5,7-Trifluoro-1-(3′-hydroxy-[1,1′-biphenyl]-4-yl)-1H-indazol-6-ol] and `Oc1cccc(-c2ccc(-n3ncc4c(F)cc(O)c(F)c43)cc2)c1` [Compound 16, 4,7-Difluoro-1-(3′-hydroxy-[1,1′-biphenyl]-4-yl)-1H-indazol-6-ol] fall in the same range of IC50: 100 to 1000 nM for the first, 100 to 1000 nM for the second.

For `Oc1c(F)cc2cnn(-c3cnc(-c4ccc(Cl)cc4)cn3)c2c1F` [Compound 18, 1-(5-(4-Chlorophenyl)pyrazin-2-yl)-5,7-difluoro-1H-indazol-6-ol], the IC50 was < 100 nM.
